Measurements as given in patent US9861678B2, “Casein peptide for use in the treatment of uterine infections” (Mileutis Ltd., priority 2010, dated 2018).

Tests used:
[1] = tested on: dairy cows with clinical postpartum metritis; test: Clinical study 1, low dose: casein hydrolysate vs antibiotics in post-partum bovine clinical metritis (safety and efficacy); type: in vivo; details: for genital secretions (ranking): score 0-4 per Table 2
Experimental: The effects of bovine casein hydrolysate in comparison with antibiotic drugs, was studied in dairy cows suffering from acute puerperal metritis (Sheldon et al., ibid 2006).
The cows recruited for this study were lactating Holstein Friesian located in large dairy herd in Israel (longitude 34°40′E-35°30′E; latitude 30°30′N-33°01′N). The cows were milked 3 times a day. The herd used was free-stall barn with a size ranged from 300 to 350 milking cows.
Cows are enrolled to the study provided that their physical condition is complied with the inclusion criteria as follows: • Cows with clinical postpartum metritis, • Cows with non-twins delivery, • Cows were not administered with intrauterine or systemic reproductive hormone therapy during the last 4 weeks, • Cows with no diagnosed morbidities, which may be potentially influence the outcome of treatment in the judgment of the investigator, • The herd managers agreed not to administer any intrauterine or reproductive hormonal therapy before examination of cows for this trial.
In addition, cows were enrolled to the clinical study provided that they have none of the following characteristics (herein “exclusion criteria”): • Cows had abnormal internal genitalia (including adhesions) • Cows with diagnosis and or treatment of severe vaginitis, lameness, mastitis-ketosis and digestive disorders during the current post calving period or any other clinical disease requiring systemic treatment at enrollment, • Cows identified to be culled (not to be inseminated) after calving • Cows administrated with immunotherapy within 3 weeks prior to study entry, • Cows administrated with anti-inflammatory and/or anabolic therapies, either systemic or by feeding 2 weeks prior to study entry. • Cows which are suspected or with a diagnosis of retained fetal membranes at the time of the current calving. • Cows which are suspected or with a clinical evidence of acute puerperal metritis with a systemic effect • Cows which are indented to be removed for any reason from the farm in the current location.
Cows in a proper physical condition (as defined above in the inclusion criteria and the exclusion criteria), that were diagnosed with confirmed clinical metritis, as determined by any one of the following clinical criteria, were enrolled to this clinical study:
1) cows must be febrile (i.e., morning rectal temperature more than 39.4° C.) and/or
2) cows must have a flaccid, non-retractable uterus that is located in the abdomen, a cervical diameter >7.5 cm, and a watery, mucopurulent, or fetid vulvar discharge.
On day “0” (first day of the study), dairy heifers or primiparous or multiparous dairy cows from the same herd and within the same lactation and ages were randomly divided, using tables prepared in advance by the investigator, to receive one or other of the treatments. Within each table, cows were assigned to treatment in pairs, a cow for each group.
Case study Arm (“arm 1”)—450 mg of bovine casine hydrolysate (Batch Number B100) administered in a 150 ml solution until completion of the arm's sample size.
(§1) Control Arm (“arm 2”)—25 ml of Oxytetracycline dehydrate (200 mg/ml total of 5,000 mg) (Norbrook Laboratory, UK).
(§2) Treatment was initiated at day “0” and was administered to the cows through transcervical intrauterine infusion using a sterile uterine catheter.
Safety was determined by monitoring on days 0.3, 1, 2, 3, 7 and 14 post-treatment, the appearance of adverse events (as detailed below) or any sign of toxicity.
In addition, the overall general impression from each cow was assessed and ranked according to the description on Table 1.
Efficacy was assessed by measuring the rectal temperature; genital system morphology and the genital secretions at a first visit after the morning observation and milking, before the treatment, 6-8 hours after the treatment and then on days 1, 2, 3, 7 and 14 post treatment. In general, treatment success was assessed after a total of 14 days after treatment. […]

[2] = tested on: dairy cows with clinical postpartum metritis; test: Clinical study 2, high dose: casein hydrolysate vs antibiotics in post-partum bovine clinical metritis (safety and efficacy); type: in vivo, lactating Israel Holstein Friesian cows
Experimental: The cows recruited for this study were lactating Israel Holstein Friesian located in a large dairy herd in Israel (longitude 34°40′E-35°30′E; latitude 30°30′N-33°01′N).
Cows enrollment to the study with respect to the physical conditions, inclusion criteria and exclusion criteria were as detailed above for clinical study-1 with respect to the overall physical condition and with respect to the diagnosis with clinical post partum metritis. In addition, cows randomization was as detailed above.
On day “0” (first day of the study) dairy heifers or primiparous or multiparous dairy cows from the same herd and with the same lactation and ages were randomly divided, using tables prepared in advance by the investigator, to receive one or other of the treatments. Within each table, cows were assigned to treatment in pairs, a cow for each group.
Case study Arm (“arm 1”)—1350 mg of bovine casein hydrolysate (Batch Number B100) administered in a 150 ml solution 3 times.
as §1, §2
Safety and efficacy criteria are as detailed above for clinical study 1 (Example 2)
The administrated veterinarian examined all cows and was in charge on the ranking of the genital secretions, from 1 to 4, based on the descriptions provided in Table 2 of clinical study 1 as well as the genital system morphology according to the description in Table 3 of clinical study 1 and the overall general impression from each cow according to the description on […].

## CN(C)[C@@H]1C(O)=C(C(N)=O)C(=O)[C@@]2(O)C(O)=C3C(=O)c4c(O)cccc4[C@@](C)(O)[C@H]3[C@H](O)[C@@H]12 [Antibiotics, Oxytetracycline dehydrate]
[1]; 6-8 h after treatment, casein hydrolysate 450 mg or oxytetracycline 5,000 mg intrauterine
  cow's fever (rectal temperature): 39.4 ± 0.66 °C
[1]; 6-8 h after treatment
  genital secretions (ranking): 3.0 ± 0.92
[1]; Before treatment (day = 0), casein hydrolysate 450 mg in 150 ml or oxytetracycline 5,000 mg, intrauterine infusion, 8 cows per arm
  cow's fever (rectal temperature): 38.8 ± 0.26 °C
[1]; Before treatment (day = 0), casein hydrolysate 450 mg or oxytetracycline 5,000 mg intrauterine
  genital secretions (ranking): 3.625 ± 0.517
[1]; Day 1 (22-32 h after treatment), casein hydrolysate 450 mg or oxytetracycline 5,000 mg intrauterine
  cow's fever (rectal temperature): 39.1 ± 0.27 °C
[1]; Day 1 (22-32 h after treatment)
  genital secretions (ranking): 2.12 ± 0.84
[1]; Day 2, casein hydrolysate 450 mg or oxytetracycline 5,000 mg intrauterine
  cow's fever (rectal temperature): 39.1 ± 0.47 °C
[1]; Day 2
  genital secretions (ranking): 2.0 ± 0.92
[1]; Day 3, casein hydrolysate 450 mg or oxytetracycline 5,000 mg intrauterine
  cow's fever (rectal temperature): 38.9 ± 0.37 °C
[1]; Day 3
  genital secretions (ranking): 2.0 ± 0.92
[1]; Day 7, casein hydrolysate 450 mg or oxytetracycline 5,000 mg intrauterine
  cow's fever (rectal temperature): 38.9 ± 0.18 °C
[1]; Day 7
  genital secretions (ranking): 1.5 ± 0.75
[1]; Day 14, casein hydrolysate 450 mg or oxytetracycline 5,000 mg intrauterine
  cow's fever (rectal temperature): 38.8 ± 0.41 °C
[1]; Day 14
  genital secretions (ranking): 1.5 ± 0.75
[2]; 6-8 h after treatment, casein hydrolysate 1350 mg or oxytetracycline 5,000 mg intrauterine
  cow's fever (rectal temperature): 39.1 °C
[2]; Before treatment (day = 0), casein hydrolysate 1350 mg (150 ml solution 3 times) or oxytetracycline 5,000 mg, intrauterine, 4 and 3 cows
  cow's fever (rectal temperature): 38.4 °C
[2]; Day 1 (22-32 h after treatment), casein hydrolysate 1350 mg or oxytetracycline 5,000 mg intrauterine
  cow's fever (rectal temperature): 38.6 °C
[2]; Day 2, casein hydrolysate 1350 mg or oxytetracycline 5,000 mg intrauterine
  cow's fever (rectal temperature): 38.4 °C
[2]; Day 3, casein hydrolysate 1350 mg or oxytetracycline 5,000 mg intrauterine
  cow's fever (rectal temperature): 38.9 °C
[2]; Day 7, casein hydrolysate 1350 mg or oxytetracycline 5,000 mg intrauterine
  cow's fever (rectal temperature): 38.3 °C
[2]; Day 14, casein hydrolysate 1350 mg or oxytetracycline 5,000 mg intrauterine
  cow's fever (rectal temperature): 38.7 °C
